# Assays:
# food intake = details: injection; cited from earlier work
# [1] = no alkylsaccharide, cited from earlier work
# [2] = tested on: Escherichia coli (ATCC No. 8739); test: Log reduction of microorganisms in cultures with alkylglycoside; assay type: cell-based; details: for Log reduction of cultures: PBS pH 7, 1 mg/mL PYY
# Text: (§1) 20110-2209. The viable microorganisms used in the invention were not more than five passages removed from the original ATCC culture. As described herein, one passage is defined as the transfer of organisms from an established culture to fresh medium and all transfers are counted.
# (§2) The culture conditions for the inoculum culture is substantially as described in Table IV. For example, suitable media can include but is not limited to, Soybean-Casein Digest or Sabouraud Dextrose Agar Medium. […]
# (§3) The suspension should be refrigerated if it is not used within 2 hours. To confirm the initial cfu per mL estimate, the number of cfu per mL in each suspension was determined using the conditions of media and microbial recovery incubation times listed in Table IV (e.g., from about 3 to about 7 days). This value serves to calibrate the size of inoculum used in the test. The bacterial and yeast suspensions were used within 24 hours of harvest; whereas the fungal preparation can be stored under refrigeration for up to 7 days.
# (§4) To determine which alkylglycoside formulations have antibacterial activity, the formulations were prepared in phosphate buffered saline (PBS) at pH 7. As a source of nutrition, either 1.5 mg/mL bovine serum albumin (BSA; see Tables V and VI) or 1 mg/mL of PYY was added (see Table VII) to the medium. BSA (CAS Number: 9048-46-8) was obtained from Sigma-Aldrich, St. Louis, Mo., USA, n-dodecyl-4-O-α-D-glucopyranosyl-β-D-glucopyranoside and n-tetradecyl-4-O-α-D-glucopyranosyl-β-D-glucopyranoside were obtained from Anatrace Inc., Maumee, Ohio, USA, and PYY was obtained from Bachem California Inc., Torrance, Calif., USA.
# (§5) Antibacterial activity of the alkylglycosides were conducted in four sterile, capped bacteriological containers of suitable size into which a sufficient volume of alkylglycoside solution had been transferred. Each container was inoculated with one of the prepared and standardized inoculums and mixed. The volume of the suspension inoculum was between about 0.5% and about 1.0% of the volume of the alkylglycoside solution. […]. To determine the level of inhibition of growth, or reduction of growth based on a logarithmic scale, the initial concentration of viable microorganisms in each test preparation was estimated based on the concentration of microorganisms in each of the standardized inoculum as determined by the plate-count method. The inoculated containers were then incubated at about 22.5° C.±2.5. The growth or non-growth of the microorganisms in each culture/container were again determined at day 14 and day 28. The number of cfu present in each calculation was determined by the plate-count procedure standard in the art for the applicable intervals. The change in the orders of magnitude of bacterium and/or fungi was then determined by subtracting the first calculated log 10 values of the concentrations of cfu per mL present at the start or beginning (e.g., day 0), from the log 10 values of the concentration of cfu per mL for each microorganism at the applicable test intervals (e.g., day 14 and day 28; see Tables V, VI and VII).
# [3] = tested on: Candida albicans (ATCC No. 10231); test: as above; assay type: cell-based; details: for Log reduction of cultures: PBS pH 7, 1 mg/mL PYY; for Log reduction of microorganisms: PBS pH 7, […] BSA
# Text: as §1, §2, §3, §4, §5
# [4] = tested on: Staphylococcus aureus (ATCC No. 6538); test: as above; assay type: cell-based; details: for Log reduction of cultures: PBS pH 7, 1 mg/mL PYY; for Log reduction of microorganisms: PBS pH 7, […] BSA
# Text: as §1, §2, §3, §4, §5
# [5] = tested on: Aspergillus niger (ATCC No. 16404); test: as above; assay type: cell-based; details: for Log reduction of cultures: PBS pH 7, 1 mg/mL PYY; for Log reduction of microorganisms: PBS pH 7, […] BSA
# Text: as §1, §2, §3, §4, §5
# blood glucose [6] = test: Insulin eye drops with absorption enhancer in xylazine/ketamine anesthetized rats, blood glucose
# [7] = Oral phenylephrine tablets with alkylsaccharide; assay type: in vivo, canine
# Method: In a canine model, subjects were dosed orally with various phenylephrine (PE) tablet formulations, and blood samples were taken to determine the rate of parent phenyl ethyl phenylephrine absorption. Blood levels of parent phenylephrine were measured. Three subject groups were created with each alkylsaccharide test group containing five subjects in each test group. All subject groups received 10 mg of phenylephrine as a single tablet. Each subject was in the fasting state for overnight and two hours post dose. Blood samples were taken at pre-dose, 5, 10, 15, 30, 45 min., 1, 2, and 3 hours.
# Comparator was the standard 30 mg (total weight including excipients) phenylephrine tablet was no absorption enhancer. Group number 2 tablets contain the alkylsaccharide designated A3, which is n-dodecyl-beta-D-maltoside in the amounts of 2.5 mg, 5 mg, and 7.5 mg, respectively. Group number three tablets contain the alkylsaccharide designated B3, which is sucrose monododecanoate, in the amounts of 5 mg, 10 mg, and 20 mg, respectively.
# blood D-glucose = test: Glucagon eye drops with surfactant, blood D-glucose; details: 0.5% surfactant plus glucagon (30 μg) eye drops
# Method: Glucagon absorption from the eye was measured in rats given eye drops containing various surfactants plus glucagon (30 μg) (Eli Lilly, Indianapolis, Ind.) by monitoring an elevation in blood D-glucose levels. In these experiments, rats were anesthetized with sodium pentobarbital rather than xylazine/ketamin.
# Paired animals that receive eye drops containing the surfactant alone, or glucagon alone, were compared to animals receiving eye drops with the surfactant plus glucagon.
# blood glucose [8] = test: Intranasal insulin with […] TDM in anesthesia-induced hyperglycemia model; assay type: in vivo, mouse; details: minus […] TDM
# Text: Intranasal administration of drugs or agents are possible in animal models e.g. mice and rats, although the nasal opening in is very small. In the experiments and results described herein, an anesthesia-induced hyperglycemia model was used (described in Examples above). Hyperglycemic animals were induced by an intraperitoneal (IP) injection containing xylazine-ketamine and blood glucose levels were monitored over a period of time. Immediately after the xylazine-ketamine injection, there was an increase in the blood glucose levels as shown in FIG. 2 (closed dark circles), and blood glucose levels were about 450 mg/dl. […] Blood glucose levels peak to about 482 mg/dl by 30 minutes after the xylazine-ketamine injection (FIG. 2). […] At about the 75 minute time point, blood glucose levels gradually returned to the baseline level in a normoglycemic mouse, or about 80-100 mg/dl.
# human nasal epithelium = test: Irritation of nasal mucosa on daily intranasal administration; details: 47 days
compound,measurement,setting,value
PYY: gut hormone fragment peptide PYY3-36,reduction of food eaten versus usual,food intake,30%
"Cc1cc2c(s1)Nc1ccccc1N=C2N1CCN(C)CC1 [olanzapine, Olanzapine]",time to peak concentrations,[1]; following an oral dose,approximately 6 hours
same,dose metabolized by first pass before reaching the systemic circulation,[1],approximately 40%
"CCCCCCCCCCCCO[C@@H]1O[C@H](CO)[C@@H](O[C@H]2O[C@H](CO)[C@@H](O)[C@H](O)[C@H]2O)[C@H](O)[C@H]1O [Dodecyl Maltoside, n-Dodecyl-4-O-α-D-glucopyranosyl-β-D-glucopyranoside]",Log reduction of cultures,[2]; Day 14,≧5 orders of orders of magnitude reduction
same,Log reduction of cultures,[2]; Day 28,≧5 orders of orders of magnitude reduction
same,Log reduction of microorganisms,"[2]; PBS pH 7, […] BSA, Day 28",0.1 orders of orders of magnitude reduction
same,Log reduction of cultures,[3]; Day 14,≧4.5 orders of orders of magnitude reduction
same,Log reduction of cultures,[3]; Day 28,≧4.5 orders of orders of magnitude reduction
same,Log reduction of microorganisms,[3]; Day 14,3.0 orders of orders of magnitude reduction
same,Log reduction of microorganisms,[3]; Day 28,≧5.3 orders of orders of magnitude reduction
same,Log reduction of cultures,[4]; Day 14,≧4.9 orders of orders of magnitude reduction
same,Log reduction of cultures,[4]; Day 28,≧4.9 orders of orders of magnitude reduction
same,Log reduction of microorganisms,[4]; Day 14,≧5.2 orders of orders of magnitude reduction
same,Log reduction of microorganisms,[4]; Day 28,≧5.2 orders of orders of magnitude reduction
same,Log reduction of cultures,[5]; Day 14,4.7 orders of orders of magnitude reduction
same,Log reduction of cultures,[5]; Day 28,4.7 orders of orders of magnitude reduction
same,Log reduction of microorganisms,[5]; Day 14,0.7 orders of orders of magnitude reduction
same,Log reduction of microorganisms,[5]; Day 28,No growth
same,"effect as absorption enhancer for ocular insulin (blood glucose lowering), in words",blood glucose [6]; 0.5% enhancer,equally effective
same,"effect as absorption enhancer for ocular insulin (blood glucose lowering), in words","blood glucose [6]; 0.5% enhancer, listed as dodecyl-β-D-maltoside",prompt and sustained fall in blood glucose levels
same,increase of oral bioavailability of phenylephrine in compressed tablets,"[7]; dog, in vivo, po",up to 56%
decylsucrose,Blood Glucose Concentration,"blood glucose [6]; eye drops insulin + 0.5% enhancer, time 0 min",313 mg/dL
same,Blood Glucose Concentration,"blood glucose [6]; eye drops insulin + 0.5% enhancer, time 120 min",164 mg/dL
"CCCCCCCCCCCCCO[C@@H]1O[C@H](CO)[C@@H](O[C@H]2O[C@H](CO)[C@@H](O)[C@H](O)[C@H]2O)[C@H](O)[C@H]1O [Tridecyl Maltoside, tridecyl-β-D-maltoside]","level of D-glucose in blood after eye drops with surfactant plus glucagon, in words",blood D-glucose,increase significantly
same,"effect as absorption enhancer for ocular insulin (blood glucose lowering), in words",blood glucose [6]; 0.5% enhancer,effective
same,"effect as absorption enhancer for ocular insulin (blood glucose lowering), in words",blood glucose [6]; […] enhancer,sustained for the two hour time course of the experiment
"insulin alone: insulin (Humalog), same dosage, minus 0.25% TDM",return of blood glucose to normoglycemic levels,blood glucose [8],never return to normoglycemic levels
same,time at which blood glucose levels start to decline,blood glucose [8]; same dosage,~120 minute time mark
"CCCCCCCCCCO[C@@H]1O[C@H](CO)[C@@H](O[C@H]2O[C@H](CO)[C@@H](O)[C@H](O)[C@H]2O)[C@H](O)[C@H]1O [Decyl Maltoside, decyl-β-D-maltoside]","level of D-glucose in blood after eye drops with surfactant plus glucagon, in words",blood D-glucose,increase significantly
same,"effect as absorption enhancer for ocular insulin (blood glucose lowering), in words",blood glucose [6]; 0.5% enhancer,prompt and sustained fall in blood glucose levels
"CCCCCCOC1O[C@H](CO)[C@@H](O)[C@H](O)[C@H]1O (stereo partly shown) [hexylglucoside, Hexylglucopyranoside]","effect as absorption enhancer for ocular insulin (blood glucose lowering), in words",blood glucose [6]; 0.5% enhancer,ineffective
"CCCCCCCCCOC1O[C@H](CO)[C@@H](O)[C@H](O)[C@H]1O (stereo partly shown) [nonylglucoside, nonylglucopyranoside]","effect as absorption enhancer for ocular insulin (blood glucose lowering), in words",blood glucose [6]; 0.5% enhancer,effectively stimulated insulin absorption
same,blood glucose level before reduction (from),"blood glucose [6]; eye drops insulin + 0.5% enhancer, initial value",297 mg/dL
same,blood glucose level after reduction (to),"blood glucose [6]; eye drops insulin + 0.5% enhancer, reduced value",150 mg/dL
"CCCCCCCCCCCC(=O)OC[C@H]1O[C@H](O[C@]2(CO)O[C@H](CO)[C@@H](O)[C@@H]2O)[C@H](O)[C@@H](O)[C@@H]1O [sucrose dodecanoate, sucrose monododecanoate]",irritation of the nasal mucosa,human nasal epithelium,no observable irritation
same,increase of oral bioavailability of phenylephrine in compressed tablets,[7]; maximum over the loadings tested,up to 50%
"CCCCCCCOC1O[C@H](CO)[C@@H](O)[C@H](O)[C@H]1O (stereo partly shown) [heptylglucoside, heptylglucopyranoside]","effect as absorption enhancer for ocular insulin (blood glucose lowering), in words",blood glucose [6]; 0.5% enhancer,ineffective

# Source: US20180000942A1, “COMPOSITIONS FOR DRUG ADMINISTRATION” (priority 2013, published 2018)
